# Publication PMC10899790, “A bromodomain-independent mechanism of gene regulation by the BET inhibitor JQ1: direct activation of nuclear receptor PXR” (Nucleic Acids Research, 2023)
# Read-outs that look alike come from different tables or passages of the source.
# T1: mouse PXR (mPXR) (Mus musculus, UniProt O54915)
# T1 sequence (O54915 1-431): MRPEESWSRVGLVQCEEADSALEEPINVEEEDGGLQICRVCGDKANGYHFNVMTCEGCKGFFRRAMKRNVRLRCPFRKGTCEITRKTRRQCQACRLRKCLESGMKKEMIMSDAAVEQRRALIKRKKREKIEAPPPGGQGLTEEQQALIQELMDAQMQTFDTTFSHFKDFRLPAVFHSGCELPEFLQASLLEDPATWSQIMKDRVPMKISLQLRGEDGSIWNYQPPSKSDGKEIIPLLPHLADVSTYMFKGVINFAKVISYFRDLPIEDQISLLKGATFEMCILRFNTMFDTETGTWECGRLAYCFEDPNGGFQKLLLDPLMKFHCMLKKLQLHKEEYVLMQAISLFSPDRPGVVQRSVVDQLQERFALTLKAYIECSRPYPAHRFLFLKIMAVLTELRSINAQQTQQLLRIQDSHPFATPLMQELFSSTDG
# T2: human PXR (Homo sapiens, UniProt O75469)
# T2 sequence (O75469 1-434): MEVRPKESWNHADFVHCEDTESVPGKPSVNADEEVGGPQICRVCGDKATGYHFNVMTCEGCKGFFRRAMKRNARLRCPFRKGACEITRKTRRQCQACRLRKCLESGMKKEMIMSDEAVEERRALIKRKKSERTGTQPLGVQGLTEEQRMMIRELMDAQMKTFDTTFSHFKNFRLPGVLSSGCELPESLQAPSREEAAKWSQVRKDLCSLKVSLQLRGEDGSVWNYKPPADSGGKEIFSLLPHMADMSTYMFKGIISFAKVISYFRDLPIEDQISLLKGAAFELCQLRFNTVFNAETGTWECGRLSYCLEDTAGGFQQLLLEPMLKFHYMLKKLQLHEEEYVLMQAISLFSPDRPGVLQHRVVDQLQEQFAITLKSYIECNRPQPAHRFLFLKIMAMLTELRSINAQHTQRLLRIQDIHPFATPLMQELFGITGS
# T3: PXR LBD (Homo sapiens, UniProt O75469)
# T3 construct: GST-PXR LBD protein (cat. # PV4841) were purchased from Thermo Fisher Scientific; purchased Thermo Fisher Scientific PV4841
# T3 sequence (O75469 146-433 limits assumed): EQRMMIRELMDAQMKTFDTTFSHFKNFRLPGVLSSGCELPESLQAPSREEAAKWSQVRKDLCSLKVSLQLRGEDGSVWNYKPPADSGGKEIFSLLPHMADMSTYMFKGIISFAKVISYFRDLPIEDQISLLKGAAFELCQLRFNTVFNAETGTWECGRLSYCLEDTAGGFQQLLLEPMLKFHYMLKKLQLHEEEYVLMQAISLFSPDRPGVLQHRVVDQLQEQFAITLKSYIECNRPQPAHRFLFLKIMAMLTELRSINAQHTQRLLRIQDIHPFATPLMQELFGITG
# T4: PXR LBD (Homo sapiens, UniProt O75469)
# T4 construct: pcDNA3-SmBiT-PXR LBD (residues 139–434); expressed in transfected cells; host or cells: HepG2
# T4 sequence (O75469 139-434): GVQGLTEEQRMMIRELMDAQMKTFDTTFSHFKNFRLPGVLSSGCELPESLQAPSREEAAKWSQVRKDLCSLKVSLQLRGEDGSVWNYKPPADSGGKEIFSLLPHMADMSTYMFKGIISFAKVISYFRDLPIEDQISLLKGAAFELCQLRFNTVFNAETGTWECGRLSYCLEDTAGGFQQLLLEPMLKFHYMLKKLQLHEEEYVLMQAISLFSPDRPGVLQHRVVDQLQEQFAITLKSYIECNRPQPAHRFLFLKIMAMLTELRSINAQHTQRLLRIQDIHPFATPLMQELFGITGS
# T4 sequence (Q15788 621-765 partner limits assumed): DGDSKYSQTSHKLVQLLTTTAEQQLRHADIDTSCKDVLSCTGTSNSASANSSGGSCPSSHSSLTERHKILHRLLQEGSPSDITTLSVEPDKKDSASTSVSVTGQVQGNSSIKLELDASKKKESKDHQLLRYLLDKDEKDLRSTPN
# T5: His-PXR LBD (residues 130-434) (human, UniProt O75469 130-434)
# T5 construct: No removal of the His tag is described; also called His-tagged PXR LBD
# T5 sequence (looked up): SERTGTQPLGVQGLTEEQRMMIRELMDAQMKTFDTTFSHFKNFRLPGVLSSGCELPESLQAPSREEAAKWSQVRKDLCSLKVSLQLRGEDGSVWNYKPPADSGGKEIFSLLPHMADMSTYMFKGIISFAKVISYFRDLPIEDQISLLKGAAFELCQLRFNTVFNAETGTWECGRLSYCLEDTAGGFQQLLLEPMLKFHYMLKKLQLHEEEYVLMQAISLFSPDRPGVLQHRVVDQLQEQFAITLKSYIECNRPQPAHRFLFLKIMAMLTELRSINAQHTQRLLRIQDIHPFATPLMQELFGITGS
# Key:
# [1] = target: T1, mouse PXR (mPXR)
# Protocol: (§1) Assays were performed similarly as previously described with minor modifications ([30–32]). HepG2 cells (7.5 × 10^5/well) were plated in six-well tissue culture-treated plates. The following day, cells were co-transfected with pGL3-CYP3A4-luc (2 μg/well), pRL-CMV (200 ng/well) and 100 ng/well of either empty vector (pcDNA3), pcDNA3-FLAG-PXR, pCMV6-mPXR or pGL4.53-PGK-PXR using Lipofectamine 3000 (Thermo Fisher Scientific). Twenty-four hours after transfection, cells were trypsinized and suspended in phenol red-free DMEM (Thermo Fisher Scientific) supplemented with 5% charcoal/dextran-treated FBS (HyClone), and 1 × 10^4 cells/well in 25 μl media were added to white 384-well plates. […] After 24 h, the Dual-Glo Luciferase Assay System (Promega) and EnVision microplate reader (PerkinElmer) were used to measure firefly and Renilla luciferase activities. CMV-driven Renilla luciferase was used as an indicator of general transcriptional modulation by the test compounds and is plotted as fold change (FC) relative to DMSO controls. Assays utilizing pGL4.54[luc2/TK], pGL4.53[luc2/PGK], or pGL4.13[luc2/SV40] were similarly performed and normalized. For the PXR-responsive CYP3A4-luciferase reporter, the measured relative light units (RLU) were normalized for each well using equation (1),
# RLUT0901317 represents the measured RLU from wells containing 1 μM T0901317. […]
# [2] = target: T2, human PXR; assay: PXR transactivation assay (CYP3A4-luciferase reporter)
# Protocol: as §1
# RLUT0901317 represents the measured RLU from wells containing 1 μM T0901317. For mPXR assays, 5 μM PCN was used in place of T0901317.
# [3] = tested on: CYP3A4; assay: RNA induction in HepaRG: CYP3A4 mRNA (RT-qPCR); conditions: differentiated HepaRG, 24 h
# Protocol: (§2) Experiments with HepaRG cells were conducted similarly to previously described ([45]), with modifications. HepaRG cells were seeded in collagen-coated 24-well plates at 5 × 10^5 cells/well in HCM. Cells were differentiated for two weeks with HCM containing 2% DMSO. The cells were then treated with the respective chemicals for 24 h in HCM. The final DMSO concentration for the treatment was 0.5%. Total RNA was isolated from cells with Maxwell 16 LEV SimplyRNA Tissue Kits (Promega), and cDNA was generated from 250 ng of RNA with the SuperScript VILO cDNA Synthesis Kit (Thermo Fisher Scientific). Quantitative real-time polymerase chain reaction (RT-qPCR) was conducted with 2 μl of cDNA using TaqMan Fast Advanced Master Mix (Applied Biosystems) in an Applied Biosystems 7500 Fast Real-Time PCR System. TaqMan gene expression assays specific for CYP3A4 (Hs00604506_m1), PXR (Hs01114267_m1), MYC (Hs00153408_m1) and RNA18S (Hs03928990_g1) were purchased from Thermo Fisher Scientific. Fold induction values were calculated according to the 2^−ΔΔCt method, where ΔCt represents the differences in cycle threshold numbers between the target gene and reference gene and ΔΔCt represents the relative change in these differences between the control and treatment groups ([46]). RNA18S was used as the reference gene for relative quantification of all other genes.
# [4] = target: T3, PXR LBD; assay: TR-FRET PXR LBD NCoR recruitment and release assays; format: biochemical; conditions: TR-FRET; percent relative to 10 μM SPA70 and DMSO
# Protocol: The TR-FRET PXR LBD NCoR recruitment assay was similarly performed, but with 500 nM FAM-NCoR peptide. Data were normalized using equations (2) and (3) with 10 μM SPA70 in place of T0901317 as the control. For the NCoR release assay, all wells contained 1 μM SPA70 to induce PXR LBD interaction with NCoR, and dose responses of agonists were used to disrupt the PXR LBD/SPA70/NCoR complex. In the release assay, 1 μM SPA70 alone served as the 100% control, and DMSO alone served as the 0% control. NCoR release assay wells contained 0.4% DMSO due to the two-compound addition.
# [5] = target: T3, PXR LBD; assay: TR-FRET PXR LBD SRC-1 recruitment assay; format: biochemical; conditions: percent relative to 10 μM T0901317 and DMSO
# Protocol: The TR-FRET PXR LBD SRC-1 recruitment assay measures PXR LBD interaction with a fluorescently labeled SRC-1 peptide (Supplementary Figure S1) and was performed as previously described with minor modifications ([23]). […] FAM-SRC-1 peptide solution (15 μl/well, 133.3 nM in assay buffer) was dispensed into 384-well black low-volume assay plates. An Echo 650 Acoustic Liquid Handler then dispensed 60 nl/well of compound stocks or DMSO. […] The plates were shaken at 900 rpm (80 × g) on an IKA MTS 2/4 digital microtiter shaker for 1 min then centrifuged at 1000 rpm (201 × g) for 30 s in an Eppendorf 5810 centrifuge equipped with an A-4-62 swing-bucket rotor. The plates were protected from light exposure and incubated for 1 h at room temperature (RT). After incubation, the TR-FRET signal from each well was collected with a PHERAstar FS Microplate Reader (BMG Labtech). The measured relative fluorescence units (RFU) were normalized for each well using equation (2),
# [6] = target: T4, PXR LBD; assay: Cellular PXR LBD SRC-1 recruitment assay (NanoBiT); format: cell-based; conditions: HepG2, NanoBiT, 30 min; 100 nM T0901317 or 5 μM other compound
# Protocol: Nano Luciferase Binary Technology (NanoBiT) ([33]) was used to assess the interaction of SRC-1 with PXR LBD in HepG2 cells (Supplementary Figure S4). […] The following day, cells were co-transfected with pcDNA3-SmBiT-PXR LBD (100 ng/well) and pcDNA3-LgBiT-SRC-1 (100 ng/well) using Lipofectamine 3000. Empty vector (pcDNA3, 800 ng/well) was used as carrier DNA due to the low amounts of expression plasmids used. […] After 24 h, 5 μl media containing 2.5% DMSO, 5X Nano-Glo Live Cell Substrate from the Nano-Glo Live Cell Assay System (Promega), and 5× concentration of compound was added, resulting in 0.5% DMSO and either 100 nM T0901317 or 5 μM other compound. The plates were incubated for 30 min at RT, and Nano Luciferase activity was then measured with an EnVision microplate reader.
# [7] = target: T3, PXR LBD; assay: TR-FRET PXR LBD ligand binding assay; conditions: TR-FRET competition with BODIPY FL vindoline
# Protocol: The TR-FRET PXR LBD ligand binding assay measures binding of PXR ligands by competition with a fluorescently labeled ligand (BODIPY FL vindoline) (Supplementary Figure S3) and was performed as previously described with minor modifications ([24]). […] BODIPY FL vindoline (15 μl/well, 133.3 nM in assay buffer) was dispensed into 384-well low-volume black assay plates. An Echo 650 Acoustic Liquid Handler then dispensed 60 nl/well of compound stocks or DMSO.
# [8] = tested on: CYP3A4; conditions: human
# Protocol: as §2
# [9] = tested on: PXR; assay: RNA induction in HepaRG: PXR RNA (RT-qPCR); format: cell-based, human; conditions: differentiated HepaRG, 24 h; FC relative to DMSO
# Protocol: as §2
# [10] = target: T5, His-PXR LBD (residues 130-434); assay: crystal structure; His-PXR LBD (100 uM) co-crystallised with SRC-1 peptide (100 uM) and 2 mM JQ1; hanging drop, 50 mM imidazole pH 7, 8% isopropanol; 2.15 Å; conditions: both partners purified
molecule,measurement,setting,value
"CC(=O)[C@H]1[C@H](C#N)C[C@H]2[C@@H]3CC=C4C[C@@H](O)CC[C@]4(C)[C@H]3CC[C@@]21C [PCN, pregnenolone-16α-carbonitrile]",activation of CYP3A4-luciferase reporter in the presence of mPXR,[1],activated mPXR
same,activation of PXR-responsive CYP3A4-luciferase reporter,[2],but not human PXR
COc1ccc(OC)c(-n2nnc(S(=O)(=O)c3ccc(C(C)(C)C)cc3)c2C)c1 [SPA70],blockade of JQ1-induced CYP3A4 mRNA,[3]; co-treatment with JQ1,the induction was blocked by SPA70
same,blockade of rifampicin-induced CYP3A4 mRNA,[3]; co-treatment with rifampicin,blocked such induction
same,recruitment of NCoR peptide to purified PXR LBD,[4],induced recruitment of corepressor NCoR
same,blockade of JQ1-mediated reporter activation (CYP3A4-luciferase reporter),"[2]; HepG2, 24 h, 0.1, 1 or 10 μM SPA70 in combination with JQ1",blocked JQ1-mediated reporter activation in a dose-dependent manner
same,blockade of rifampicin-mediated PXR activation (CYP3A4-luciferase reporter),"[2]; HepG2, 24 h, 0.1, 1 or 10 μM SPA70 in combination with rifampicin",blocked rifampicin-mediated PXR activation
Cc1sc2c(c1C)C(c1ccc(Cl)cc1)=N[C@@H](CC(N)=O)c1nnc(C)n1-2 [CPI-203],recruitment of SRC-1 peptide to purified PXR LBD,[5],JQ1 > birabresib > CPI-203
same,SRC-1 recruitment to PXR LBD in cells,[6],JQ1 > birabresib > CPI-203
same,binding to purified PXR LBD (binding potency),[7],JQ1 > birabresib > CPI-203
same,activation of PXR-responsive CYP3A4-luciferase reporter,[2],inactive
same,endogenous CYP3A4 mRNA expression,[8],reduced CYP3A4 RNA level in the presence and absence of SPA70
same,endogenous CYP3A4 mRNA expression on co-treatment with SPA70,[8],reduced CYP3A4 RNA level in the presence and absence of SPA70
same,PXR RNA expression,[9],greatly reduced PXR RNA
Cc1sc2c(c1C)C(c1ccc(Cl)cc1)=N[C@@H](CC(=O)Nc1ccc(O)cc1)c1nnc(C)n1-2 [birabresib],endogenous CYP3A4 mRNA expression,[3]; FC relative to DMSO,reduced CYP3A4 RNA level in the presence and absence of SPA70
same,endogenous CYP3A4 mRNA expression on co-treatment with SPA70,[3]; co-treated with SPA70,reduced CYP3A4 RNA level in the presence and absence of SPA70
same,recruitment of SRC-1 peptide to purified PXR LBD,[5],JQ1 > birabresib > CPI-203
same,SRC-1 recruitment to PXR LBD in cells,[6],JQ1 > birabresib > CPI-203
same,binding to purified PXR LBD (binding potency),[7],JQ1 > birabresib > CPI-203
same,activation of PXR-responsive CYP3A4-luciferase reporter,"[2]; PXR-transfected HepG2, 24 h, percent relative to 1 μM T0901317 and DMSO",weak agonist
same,PXR RNA expression,[9],greatly reduced PXR RNA
"CPSSHSSLTERHKILHRLLQEGSPS (The crystallisation methods say only 'SRC-1 peptide'; that it was the unlabeled one is surmised; source: synthetic peptide (Hartwell Center Macromolecular Synthesis Section, St. Jude)) [Unlabeled SRC-1 peptide]",binding result,[10],binds
